Among the data in patent publication US20260285859A1, “BI-CYCLIC PYRIMIDINE COMPOUNDS, METHODS AND USES THEREOF” (Zeno Management, Inc., priority 2023, published 2026) are IC50 values, retold here.

For assay [1], the target named is T1, PKMYT1 (Homo sapiens, UniProt Q99640).
T1 sequence (Q99640 1-499): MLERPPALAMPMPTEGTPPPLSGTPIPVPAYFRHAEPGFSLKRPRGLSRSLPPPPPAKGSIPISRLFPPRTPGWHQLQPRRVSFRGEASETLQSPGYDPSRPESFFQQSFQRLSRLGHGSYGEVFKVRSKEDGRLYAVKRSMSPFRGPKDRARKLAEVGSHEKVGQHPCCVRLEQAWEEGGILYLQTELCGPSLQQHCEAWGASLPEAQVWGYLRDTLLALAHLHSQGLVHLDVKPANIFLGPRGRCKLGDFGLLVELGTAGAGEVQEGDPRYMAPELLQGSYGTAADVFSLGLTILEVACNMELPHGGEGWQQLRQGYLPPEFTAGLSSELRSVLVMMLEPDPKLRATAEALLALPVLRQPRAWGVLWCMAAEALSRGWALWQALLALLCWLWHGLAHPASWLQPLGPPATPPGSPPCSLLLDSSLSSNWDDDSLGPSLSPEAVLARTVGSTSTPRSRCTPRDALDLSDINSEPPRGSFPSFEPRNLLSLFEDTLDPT
The experiment in a line: LanthaScreen Eu Kinase Binding Assay, PKMYT1. For orientation: Time-resolved FRET reads energy transfer from a long-lived donor to a nearby acceptor.
Description: (§1) Binding of the tracer to the kinase is detected using a europium-labeled anti-GST antibody, which binds to the fused tag on the kinase protein. […] Inhibitor binding to the kinase competes with tracer binding, resulting in loss of FRET from the donor/acceptor pairs.
(§2) Kinase/Antibody Mixtures and Tracer are diluted to a 2× and 4× working concentration, respectively in this same buffer. […] 0% displacement (no known inhibitor) and 100% displacement (highest concentration of known inhibitor) controls were included on each plate for maximum and minimum Emission Ratio determination, respectively. Dasatinib was used for both PKMYT1 and WEE1 as the known inhibitor.
(§3) IC50 determination was performed using a non-linear regression, variable slope (four parameter), inhibitor v. response equation (Prism 9.0).

In assay [2] the target is WEE1 (Homo sapiens, UniProt P30291). The experiment in a line: LanthaScreen Eu Kinase Binding Assay, WEE1.
Description: as §1, §2, §3

A word on the IC50: it is the concentration that gives 50% inhibition. Lower therefore signals greater potency.

WEE1, sequence (P30291 whole entry): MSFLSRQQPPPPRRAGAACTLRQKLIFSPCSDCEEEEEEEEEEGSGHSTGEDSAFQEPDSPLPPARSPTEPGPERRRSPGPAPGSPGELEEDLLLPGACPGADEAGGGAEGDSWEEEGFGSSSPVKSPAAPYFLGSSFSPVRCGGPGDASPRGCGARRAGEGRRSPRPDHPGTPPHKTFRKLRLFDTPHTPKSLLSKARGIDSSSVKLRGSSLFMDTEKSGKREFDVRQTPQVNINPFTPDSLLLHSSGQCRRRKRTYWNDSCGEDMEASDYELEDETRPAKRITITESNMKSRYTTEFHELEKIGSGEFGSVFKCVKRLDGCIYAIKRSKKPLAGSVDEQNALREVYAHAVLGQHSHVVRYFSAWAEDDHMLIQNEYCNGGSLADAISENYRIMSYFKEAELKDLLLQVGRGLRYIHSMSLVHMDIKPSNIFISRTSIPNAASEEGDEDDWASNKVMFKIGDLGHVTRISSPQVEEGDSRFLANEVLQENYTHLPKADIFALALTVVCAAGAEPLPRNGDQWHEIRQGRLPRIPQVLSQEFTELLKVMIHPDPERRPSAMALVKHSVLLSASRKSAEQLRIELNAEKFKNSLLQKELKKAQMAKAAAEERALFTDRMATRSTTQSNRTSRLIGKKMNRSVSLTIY

Take `Cc1ccc(O)c(C)c1-c1nc(N(C)c2cnn(C)c2)cc2c(N)ncnc12` (single isomer, unassigned) [Compound 46-B]: the IC50 in assay [1] was less than 10 nM; in assay [2], greater than 1000 nM.
With `Cc1ccc(O)c(C)c1-c1nc(C(F)F)cc2c(N)ncnc12` (single isomer, unassigned) [Compound 48-B], the IC50 was 10 to 100 nM in assay [1] and greater than 1000 nM in assay [2].
`COc1cc2c(N)ncnc2c(-c2c(C)ccc(O)c2C)n1` (single isomer, unassigned) [Compound 49-B]: the IC50 in assay [1] was 10 to 100 nM; in assay [2] it was greater than 1000 nM.
In the case of `Cc1ccc(O)c(C)c1-c1nc(C(C)C)cc2c(N)ncnc12` (single isomer, unassigned) [Compound 50-B], the IC50 is 10 to 100 nM in assay [1] and greater than 1000 nM in assay [2].
Turning to `Cc1ccc(O)c(C)c1-c1c(C)c(N(C)C)cc2c(N)ncnc12` (single isomer, unassigned) [Compound 51-B], the values for the IC50 in assay [1] and in assay [2] were 10 to 100 nM and greater than 1000 nM, respectively.
Consider `Cc1cc2c(N)ncnc2c(-c2c(C)ccc(O)c2C)c1C` (single isomer, unassigned) [Compound 52-B], for which the half-inhibitory concentration (IC50) was 10 to 100 nM in assay [1] and greater than 1000 nM in assay [2].
As to `Cc1cc(-c2c(C)ccc(O)c2C)c2ncnc(N)c2c1` (single isomer, unassigned) [Compound 53-B], the values for the IC50 in assay [1] and in assay [2] were 10 to 100 nM and greater than 1000 nM, respectively.
Regarding `Cc1ccc(O)c(C)c1-c1nc(N2CC[C@@](C)(F)C2)cc2c(N)ncnc12` (single isomer, unassigned) [Compound 54-B], the IC50 was less than 10 nM in assay [1] and 100 to 1000 nM in assay [2].
With `Cc1ccc(O)c(C)c1-c1nc(N2CC[C@](C)(F)C2)cc2c(N)ncnc12` (single isomer, unassigned) [Compound 55-B], the IC50 was less than 10 nM in assay [1] and 100 to 1000 nM in assay [2].
For `Cc1ccc(O)c(C)c1-c1nc(C2=CCOCC2)cc2c(N)ncnc12` (single isomer, unassigned) [Compound 56-B], in that order: less than 10 nM and 100 to 1000 nM.
Taken in the same sequence, the figures for `C=C(C)c1cc2c(N)ncnc2c(-c2c(C)ccc(O)c2C)n1` (single isomer, unassigned) [Compound 57-B] were less than 10 nM and greater than 1000 nM.
As to `Cc1ccc(O)c(C)c1-c1nc(N2CC[C@@H](F)C2)cc2c(N)ncnc12` (single isomer, unassigned) [Compound 58-B], the IC50 is less than 10 nM in assay [1] and 100 to 1000 nM in assay [2].
With `Cc1ccc(O)c(C)c1-c1nc(N2CC[C@H](F)C2)cc2c(N)ncnc12` (single isomer, unassigned) [Compound 59-B], the IC50 in assay [1] is less than 10 nM; in assay [2] it was 100 to 1000 nM.
Taken in the same sequence, the figures for `Cc1cc2c(N)ncnc2c(-c2c(C)ccc(O)c2C)n1` [Compound 17-B, (S)-3-(4-Amino-6-methylpyrido[3,4-d]pyrimidin-8-yl)-2,4-dimethylphenol] were 10 to 100 nM and greater than 1000 nM.
Take `Cc1ccc(O)c(C)c1-c1nc(-c2ccncc2)cc2c(N)ncnc12` [Compound 32-B, (S)-3-(4-amino-6-(pyridin-4-yl)pyrido[3,4-d]pyrimidin-8-yl)-2,4-dimethylphenol]: the results for the IC50 in assay [1] and in assay [2] were less than 10 nM and 100 to 1000 nM, respectively.
For the compound `[2H]C([2H])([2H])N(c1cc2c(N)ncnc2c(-c2c(C)ccc(O)c2C)n1)C1CC1` [Compound 60-B, (S)-3-(4-amino-6-(cyclopropyl(methyl-d3)amino)pyrido[3,4-d]pyrimidin-8-yl)-2,4-dimethylphenol], the half-maximal inhibitory concentration (IC50) in assay [1] was less than 10 nM; in assay [2], 100 to 1000 nM.
For `Cc1ccc(O)c(C)c1-c1nc(N(C)[C@H]2[C@@H]3COC[C@@H]32)cc2c(N)ncnc12` [Compound 61-B, 3-((S)-6-(((1R,5S,6r)-3-oxabicyclo[3.1.0]hexan-6-yl)(methyl)amino)-4-aminopyrido[3,4-d]pyrimidin-8-yl)-2,4-dimethylphenol], in that order: less than 10 nM and greater than 1000 nM.
As to `CO[C@H]1C[C@@H](N(C)c2cc3c(N)ncnc3c(-c3c(C)ccc(O)c3C)n2)C1` [Compound 62-B, 3-((S)-4-amino-6-(((1s,3R)-3-methoxycyclobutyl)(methyl)amino)pyrido[3,4-d]pyrimidin-8-yl)-2,4-dimethylphenol], the IC50 was less than 10 nM in assay [1] and greater than 1000 nM in assay [2].
As for `CO[C@H]1C[C@H](N(C)c2cc3c(N)ncnc3c(-c3c(C)ccc(O)c3C)n2)C1` [Compound 62-D, 3-((S)-4-amino-6-(((1r,3S)-3-methoxycyclobutyl)(methyl)amino)pyrido[3,4-d]pyrimidin-8-yl)-2,4-dimethylphenol], the IC50 is less than 10 nM in assay [1] and greater than 1000 nM in assay [2].
In the case of `[2H]C([2H])([2H])N(c1cc2c(N)ncnc2c(-c2c(C)ccc(O)c2C)n1)[C@H]1[C@@H]2COC[C@@H]21` [Compound 63-B, 3-((S)-6-(((1R,5S,6r)-3-oxabicyclo[3.1.0]hexan-6-yl)(methyl-d3)amino)-4-aminopyrido[3,4-d]pyrimidin-8-yl)-2,4-dimethylphenol], the IC50 in assay [1] is less than 10 nM; in assay [2] it was greater than 1000 nM.
Take `Cc1ccc(O)c(C)c1-c1cc(C2=CCOCC2)nc2c(N)ncnc12` [Compound 71-B, (R)-3-(4-amino-6-(3,6-dihydro-2H-pyran-4-yl)pyrido[3,2-d]pyrimidin-8-yl)-2,4-dimethylphenol]: the 50% inhibitory concentration (IC50) in assay [1] is less than 10 nM; in assay [2], 100 to 1000 nM.
With `Cc1ccc(O)c(C)c1-c1cc(NC2CC2)nc2c(N)ncnc12` [Compound 72-B, (R)-3-(4-amino-6-(cyclopropylamino)pyrido[3,2-d]pyrimidin-8-yl)-2,4-dimethylphenol], the IC50 in assay [1] is less than 10 nM; in assay [2], greater than 1000 nM.
Turning to `Cc1ccc(O)c(C)c1-c1cc(N(C)C)nc2c(N)ncnc12` [Compound 73-B, (R)-3-(4-Amino-6-(dimethylamino)pyrido[3,2-d]pyrimidin-8-yl)-2,4-dimethylphenol], the 50% inhibitory concentration (IC50) in assay [1] is 10 to 100 nM; in assay [2] it was greater than 1000 nM.
Taken in the same sequence, the figures for `Cc1cc(-c2c(C)ccc(O)c2C)c2ncnc(N)c2n1` [Compound 74-B, (R)-3-(4-amino-6-methylpyrido[3,2-d]pyrimidin-8-yl)-2,4-dimethylphenol] were 10 to 100 nM and greater than 1000 nM.
With `Cc1ccc(O)c(C)c1-c1cc(N(C)C2CC2)nc2c(N)ncnc12` [Compound 75-B, (R)-3-(4-amino-6-(cyclopropyl(methyl)amino)pyrido[3,2-d]pyrimidin-8-yl)-2,4-dimethylphenol], the figures for the IC50 in assay [1] and in assay [2] were 10 to 100 nM and greater than 1000 nM, respectively.
With `Cc1ccc(O)c(C)c1-c1cc(C2CC2)nc2c(N)ncnc12` [Compound 76-B, (R)-3-(4-amino-6-cyclopropylpyrido[3,2-d]pyrimidin-8-yl)-2,4-dimethylphenol], the figures for the IC50 in assay [1] and in assay [2] were less than 10 nM and greater than 1000 nM, respectively.
